The text below walks through data of ChEMBL document CHEMBL1125092, “Nonneurotoxic tetralin and indan analogues of 3,4-(methylenedioxy)amphetamine (MDA)” (J Med Chem, 1990).

Where “and” joins values, the source holds several entries; their conditions need not be identical. Equal entries are not always repeated.

Type in all cases: functional
Assay [1] deals with Rattus norvegicus. Description: Tested for stimulus generation in rats trained to discriminate LSD from saline at a dose 0.55 (umol/kg),(number of animals = 9).
Assay [2] has as its system Rattus norvegicus. Description: Hallucinogenic property was determined in groups of LSD trained rats and percentage of animals disrupted was reported at a dose 4.39 (umol/kg),(number of animals = 12).
Assay [3] has as its system Rattus norvegicus. Description: Hallucinogenic property was determined in groups of LSD trained rats and percentage of animals disrupted was reported at a dose 2.74 (umol/kg),(number of animals = 8).
For assay [4], the system named is Rattus norvegicus. Description: Hallucinogenic property was determined in groups of MDMA trained rats and percentage of animals disrupted was reported at a dose 2.74 umol/kg),(number of animals = 12.
In assay [5] the test system is Rattus norvegicus. Description: Hallucinogenic property was determined in groups of MDMA trained rats and percentage of animals disrupted was reported at a dose 1.1 (umol/kg),(number of animals = 8.
For assay [6], the system named is Rattus norvegicus. Description: Hallucinogenic property was determined in groups of MDMA trained rats and percentage of animals disrupted was reported at 8.78 (umol/kg),(number of animals = 12.
Assay [7] deals with Rattus norvegicus. Description: Hallucinogenic property was determined in groups of MDMA trained rats and percentage of animals disrupted was reported at a dose 4.39 (umol/kg),(number of animals = 9).
Assay [8] concerns Rattus norvegicus. Description: Hallucinogenic property was determined in groups of LSD trained rats and percentage of animals disrupted was reported at 1.10 (umol/kg),(number of animals = 9).
The test system of assay [9] is Rattus norvegicus. Description: Tested for stimulus generation in rats trained to discriminate LSD from saline at a dose 1.10 (umol/kg),(number of animals = 9).
For assay [10], the system named is Rattus norvegicus. Description: Tested for stimulus generation in rats trained to discriminate +/-MDMA from saline at 6.59 (umol/kg),(number of animals = 9).
Assay [11] concerns Rattus norvegicus. Description: Hallucinogenic property was determined in groups of MDMA trained rats and percentage of animals disrupted was reported at a dose 6.59 (umol/kg),(number of animals = 9.
Assay [12] concerns Rattus norvegicus. Description: Hallucinogenic property was determined in groups of LSD trained rats and percentage of animals disrupted was reported at a dose 2.2 (umol/kg),(number of animals = 8).
Assay [13] relates to Rattus norvegicus. Description: Tested for stimulus generation in rats trained to discriminate +/-MDMA from saline at 7.69 (umol/kg),(number of animals = 12).
For assay [14], the system named is Rattus norvegicus. Description: Tested for stimulus generation in rats trained to discriminate +/-MDMA from saline at 1.10 (umol/kg),(number of animals = 8).
Assay [15] deals with Rattus norvegicus. Description: Tested for disruption in more than 50% rats trained to discriminate LSD from saline at a dose 8.78(uM/kg) (no. of animals =11).
The subject of assay [16] is Rattus norvegicus. Description: Hallucinogenic property was determined in groups of LSD trained rats and percentage of animals disrupted was reported at a dose 0.55 (umol/kg),(number of animals = 9).
Assay [17] concerns Rattus norvegicus. Description: Tested for stimulus generation in rats trained to discriminate LSD from saline at a dose 6.59 (umol/kg),(number of animals = 15).
In assay [18] the test system is Rattus norvegicus. Description: Hallucinogenic property was determined in groups of MDMA trained rats and percentage of animals disrupted was reported at a dose 7.69 (umol/kg),(number of animals = 12).
Assay [19] relates to Rattus norvegicus. Description: Tested for stimulus generation in rats trained to discriminate LSD from saline at 2.2 (umol/kg),(number of animals = 8).
Assay [20] has as its system Rattus norvegicus. Description: Hallucinogenic property was determined in groups of LSD trained rats and percentage of animals disrupted was reported at a dose 6.59 (umol/kg),(number of animals = 15).
Assay [21] relates to Rattus norvegicus. Description: Tested for stimulus generation in rats trained to discriminate LSD from saline at a dose 4.39 (umol/kg),(number of animals = 12).
In assay [22] the test system is Rattus norvegicus. Description: Tested for stimulus generation in rats trained to discriminate +/-MDMA from saline at 4.39 (umol/kg),(number of animals = 9).
The subject of assay [23] is Rattus norvegicus. Description: Hallucinogenic property was determined in groups of MDMA trained rats and percentage of animals disrupted was reported at a dose 3.29 (umol/kg),(number of animals =10.
Assay [24] deals with Rattus norvegicus. Description: Tested for stimulus generation in rats trained to discriminate +/-MDMA from saline at 3.29 (umol/kg),(number of animals = 10).
Assay [25] has as its system Rattus norvegicus. Description: Tested for stimulus generation in rats trained to discriminate LSD from saline at a dose 2.74 (umol/kg),(number of animals = 8).
Assay [26] concerns Rattus norvegicus. Description: Tested for stimulus generation in rats trained to discriminate +/-MDMA from saline at 2.2 (umol/kg),(number of animals = 11).
Assay [27] has as its system Rattus norvegicus. Description: Tested for stimulus generation in rats trained to discriminate +/-MDMA from saline at 2.74 (umol/kg),(number of animals = 12).
Assay [28] relates to Rattus norvegicus. Description: Hallucinogenic property was determined in groups of MDMA trained rats and percentage of animals selecting drug lever was reported at 13.18 (umol/kg),(number of animals = 5.
In assay [29] the test system is Rattus norvegicus. Description: Hallucinogenic property was determined in groups of LSD trained rats and percentage of animals disrupted was reported at a dose 8.78 (umol/kg),(number of animals = 11).
In assay [30] the test system is Rattus norvegicus. Description: Hallucinogenic property was determined in groups of MDMA trained rats and percentage of animals disrupted was reported at a dose 2.2 (umol/kg),(number of animals = 11.
Assay [31] relates to Rattus norvegicus. Description: Tested for stimulus generation in rats trained to discriminate +/-MDMA from saline at 8.78 (umol/kg),(number of animals = 12).
The subject of assay [32] is Rattus norvegicus. Description: Hallucinogenic property was determined in groups of LSD trained rats and percentage of animals disrupted was reported at a dose 0.093(umol/kg) (number of animals = 8).
Assay [33] has as its system Rattus norvegicus. Description: Tested for stimulus generation in rats trained to discriminate LSD from saline at a dose 0.023 (umol/kg) (number of animals = 8).
Assay [34] has as its system Rattus norvegicus. Description: Tested for stimulus generation in rats trained to discriminate LSD from saline at a dose 0.186 (umol/kg),(number of animals = 8).
Assay [35] has as its system Rattus norvegicus. Description: Tested for stimulus generation in rats trained to discriminate LSD from saline at a dose 0.093(umol/kg) (number of animals = 8).
Assay [36] has as its system Rattus norvegicus. Description: Tested for stimulus generation in rats trained to discriminate LSD from saline at a dose 0.046(umol/kg) (number of animals = 9).
Assay [37] is filed under the species Rattus norvegicus. Description: Inhibitory activity was determined LSD trained rats.
In assay [38] the test system is Rattus norvegicus. Description: Hallucinogenic property was determined in groups of LSD trained rats and percentage of animals disrupted was reported at a dose 0.186 (umol/kg),(number of animals = 8).
Assay [39] has as its system Rattus norvegicus. Description: Tested for stimulus generation in rats trained to discriminate LSD from saline at a dose 0.012 (umol/kg),(number of animals = 8).
In assay [40] the test system is Rattus norvegicus. Description: Hallucinogenic property was determined in groups of LSD trained rats and percentage of animals disrupted was reported at a dose 0.046(umol/kg) (number of animals = 9).
Assay [41] deals with Rattus norvegicus. Description: Hallucinogenic property was determined in groups of LSD trained rats and percentage of animals disrupted was reported at a dose 0.012 (umol/kg),(number of animals = 8).
The test system of assay [42] is Rattus norvegicus. Description: Hallucinogenic property was determined in groups of LSD trained rats and percentage of animals disrupted was reported at 0.023 (umol/kg) (number of animals = 8).

Regarding `NC1CCc2c(ccc3c2OCO3)C1` (configuration not stated), the SDL is listed as 0% with Rattus norvegicus [1]; 13% with Rattus norvegicus [9]; 75% in the assay with Rattus norvegicus [10]; 75% with Rattus norvegicus [13]; 0% with Rattus norvegicus [14]; 71% with Rattus norvegicus [15]. The SDL with Rattus norvegicus [17] was 38%; in the assay with Rattus norvegicus [19], 25%; with Rattus norvegicus [21] it was 25%; in the assay on Rattus norvegicus [22] it was 50%; in the assay with Rattus norvegicus [24], 63%; with Rattus norvegicus [25] it was 25%. Moreover, the results for the SDL with Rattus norvegicus [26], with Rattus norvegicus [27] and in the assay with Rattus norvegicus [31] were 63%, 63% and 71%, respectively. The D in the assay on Rattus norvegicus [2] is recorded as 33%; with Rattus norvegicus [3], 0%; in the assay on Rattus norvegicus [4] it was 33%; in the assay on Rattus norvegicus [5] it was 38%; with Rattus norvegicus [6], 42%; in the assay on Rattus norvegicus [7], 11%. The D in the assay with Rattus norvegicus [8] worked out at 11%; in the assay on Rattus norvegicus [11], 11%; with Rattus norvegicus [12], 0%; in the assay with Rattus norvegicus [16], 11%; in the assay with Rattus norvegicus [18], 33%; in the assay with Rattus norvegicus [20], 47%. Moreover, the D came out at 20% in the assay on Rattus norvegicus [23], 100% in the assay on Rattus norvegicus [28], 55% with Rattus norvegicus [29] and 27% in the assay on Rattus norvegicus [30].

On to `CCN(CC)C(=O)[C@@H]1C=C2c3cccc4[nH]cc(c34)C[C@H]2N(C)C1` [LYSERGIDE], for which the D in the assay on Rattus norvegicus [32], with Rattus norvegicus [38], with Rattus norvegicus [40], in the assay with Rattus norvegicus [41] and in the assay on Rattus norvegicus [42] was 0% each time. The SDL worked out at 0% in the assay on Rattus norvegicus [33]; 100% in the assay with Rattus norvegicus [34]; 88% with Rattus norvegicus [35]; 44% with Rattus norvegicus [36]; 13% in the assay on Rattus norvegicus [39]. The ED50 in the assay listed under Rattus norvegicus [37] was 0.048 µM/kg and 0.021 µM/kg.
